Read-outs that look alike come from different tables or passages of the source.
Experiments:
[1] = test system: primary multiple myeloma blast cells; assay: FACS cytotoxicity assay, autologous T cell-mediated killing of primary multiple myeloma blast cells; format: cell-based, human; conditions: for EC50: read-out: MM Lysis EC50
Procedure: In order to monitor the specific killing of multiple myeloma cells by flow cytometry, bone marrow mononuclear cells (BMMC) from multiple myeloma patients were plated on human stromal cells (HS5) and rested overnight at 37 C. Separately, matching patient peripheral blood mononuclear cells (PBMC) were thawed and cultured in supplemented RPMI media at 1×10^6 cells/mL overnight at 37° C. in order to enrich for lymphocytes by depleting adherent cells. The next day, BMMC were co-incubated with adherent cell-depleted naïve PBMC on stromal cells (HS5) and a serial 10× dilution of BCMA×CD3 bispecific or 1-arm CD3 isotype control (starting concentration 66.7 nM) at 37° C. Cells were removed from cell culture plates at day 3, 4 or 7 and analyzed by FACS. For the assessment of specificity of killing, multiple myeloma cells were gated as single, live, CD90 negative (to exclude stromal cells), CD2 negative, CD56 positive. CD45 was low on multiple myeloma cells in most samples except MM455. Percent of live target cells was reported for the calculation of adjusted survival as follows: Adjusted survival=(R1/R2)*100, where R1=% live target cells in the presence of antibody, and R2=% live target cells in the absence of test antibody.
T cells were gated as CD2 positive, CD56 negative and either CD4 or CD8 positive. T cell activation was reported as the percent of CD25+CD4 or CD8 T cells out of total CD4 or CD8 T cells.

[2] = test system: BCMA-expressing NCI-H929 multiple myeloma tumors; assay: Xenogenic tumor model, NCI-H929 + human PBMC s.c. in NSG mice, dose response, treatment from implantation (Example 11); format: in vivo, mouse
Procedure: To determine the in vivo efficacy of anti-BCMA×anti-CD3 bispecific antibodies (Abs), a xenogenic tumor study was performed. Immunodeficient NOD.Cg-Prkdc^ScidII2rg^tm1Wjl/SzJ (NSG) mice were subcutaneously implanted with a mixture of 10×10^6 BCMA-expressing NCI-H929 human multiple myeloma tumor cells and 0.5×10^6 human peripheral blood mononuclear cells (PBMC) isolated from a normal, healthy donor. […] The mice were administered these Abs twice per week for a total of seven doses, and tumor growth was assessed over 60 days. While BCMA+NCI-H929 tumors grew similarly in the vehicle- and CD3-binding control-treated mice, both anti-BCMA×anti-CD3 Abs that were tested prevented the growth of tumors in a dose-dependent manner in vivo.
Implantation and measurement of xenogenic tumors: NSG mice were subcutaneously implanted with a mixture of 10×10^6 BCMA-expressing NCI-H929 multiple myeloma cells and 0.5×10^6 PBMC derived from a normal, healthy donor. […] The mice were administered Abs twice per week for a total of seven doses. Tumor growth was measured with calipers twice per week for the duration of the experiment.
Calculation of xenogenic tumor growth and inhibition: In order to determine tumor volume by external caliper, the greatest longitudinal diameter (length in mm) and the greatest transverse diameter (width in mm) were determined. Tumor volumes based on caliper measurements were calculated by the formula: Volume (mm^3)=(length× width^2)/2.

[3] = test system: Jurkat/NFATLuc.3C7 reporter cells with HEK293 cells (BCMA negative); assay: Jurkat/NFATLuc reporter bioassay (T-cell activation); format: cell-based, human
Procedure: (§1) Activity of the anti-BCMA×anti-CD3 bispecific antibodies were assessed in a Jurkat/NFATLuc reporter bioassay utilizing several cell lines with varying levels of BCMA surface expression. The Jurkat cells were engineered to express an NFAT-luciferase reporter (Jurkat/NFATLuc.3C7), and 50,000 Jurkat reporter cells were combined with 50,000 BCMA positive (Daudi, MM1-S, NCI-H929, OPM-2, RPMI-8226, MOLP-8, or Raji) or BCMA negative (HEK293) cells in Thermo Nunclon delta 96 well white microwell plates (Thermo Scientific, Cat #136102) in 50 ul of assay media (RPMI media with 10% FBS and 1% P/S/G). Three-fold serial dilutions of the BCMA×CD3 bispecific antibodies (mAb25441D or mAb25442D), or a bivalent anti-BCMA antibody (mAb21581) were immediately added in 50 uL of assay buffer. The plates were gently agitated and incubated in a 37° C., 5% CO2 incubator for 4-6 hours. NFAT-Luciferase activity was determined using Promega One-Glo (Cat #E6130) and a Perkin Elmer Envision plate reader. RLU were plotted in GraphPad Prism using a four-parameter logistic equation over a 12-point response curve to calculate EC50 values. The no antibody treatment condition for each dose-response curve is also included in the analysis as a continuation of the three-fold serial dilution and is represented as the lowest dose. The signal to noise (S:N) is determined by taking the ratio of the highest RLU on the curve to the lowest.

[4] = test system: Jurkat/NFATLuc.3C7 reporter cells with MM1-S cells (BCMA positive); assay: as above; format: cell-based, human
Procedure: as §1

[5] = test system: Jurkat/NFATLuc.3C7 reporter cells with Raji cells (BCMA positive); assay: as above; format: cell-based, human
Procedure: as §1

[6] = test system: Jurkat/NFATLuc.3C7 reporter cells with RPMI-8226 cells (BCMA positive); assay: as above; format: cell-based, human
Procedure: as §1

Substance: REGN5458: anti-BCMA×anti-CD3 bispecific antibody: mAb21581 BCMA heavy chain, mAb7221G CD3 heavy chain and common light chain; SEQ ID NOs 126, 127, 129
- EC50 ([1]; Sample MM2, E:T 1.4, 7 days): 0.747 nM
- % MM lysis at 66 nM ([1]; Sample MM2, newly diagnosed, E:T 1.4, 7 days): 88%
- % MM lysis at 66 nM ([1]; Sample MM369, newly diagnosed, E:T 0.3, 3 days): 96%
- EC50 ([1]; Sample MM453, E:T 2.4, 3 days): 0.0989 nM
- % MM lysis at 66 nM ([1]; Sample MM453, newly diagnosed, E:T 2.4, 3 days): 82%
- EC50 ([1]; Sample MM455, E:T 0.4, 3 days): 3.67 nM
- % MM lysis at 66 nM ([1]; Sample MM455, progression, treated, E:T 0.4, 3 days): 63%
- Average Tumor Size (mm3) ± SEM on Day 7 ([2]; 0.04 mg/kg): 30.8 ± 5.5 mm3
- Average Tumor Size (mm3) ± SEM on Day 12 ([2]; 0.04 mg/kg): 71.5 ± 22.4 mm3
- Average Tumor Size (mm3) ± SEM on Day 15 ([2]; 0.04 mg/kg): 133.4 ± 50.9 mm3
- Average Tumor Size (mm3) ± SEM on Day 19 ([2]; 0.04 mg/kg): 413.7 ± 162.7 mm3
- Average Tumor Size (mm3) ± SEM on Day 22 ([2]; 0.04 mg/kg): 669.4 ± 248.5 mm3
- Average Tumor Size (mm3) ± SEM on Day 26 ([2]; 0.04 mg/kg): 1167.0 ± 431.7 mm3
- Average Tumor Size (mm3) ± SEM on Day 29 ([2]; 0.04 mg/kg): 1781.8 ± 620.7 mm3
- Average Tumor Size (mm3) ± SEM on Day 4 ([2]; 0.4 mg/kg): 31.9 ± 2.0 mm3
- Average Tumor Size (mm3) ± SEM on Day 7 ([2]; 0.4 mg/kg): 11.3 ± 3.0 mm3
- Average Tumor Size (mm3) ± SEM on Day 15 ([2]; 0.4 mg/kg): 0 ± 0 mm3
- Average Tumor Size (mm3) ± SEM on Day 19 ([2]; 0.4 mg/kg): 0 ± 0 mm3
- Average Tumor Size (mm3) ± SEM on Day 22 ([2]; 0.4 mg/kg): 0 ± 0 mm3
- Average Tumor Size (mm3) ± SEM on Day 26 ([2]; 0.4 mg/kg): 0 ± 0 mm3
- Average Tumor Size (mm3) ± SEM on Day 29 ([2]; 0.4 mg/kg): 0 ± 0 mm3
- Average Tumor Size (mm3) ± SEM on Day 34 ([2]; 0.4 mg/kg): 0 ± 0 mm3
- Average Tumor Size (mm3) ± SEM on Day 39 ([2]; 0.4 mg/kg): 0 ± 0 mm3
- Average Tumor Size (mm3) ± SEM on Day 42 ([2]; 0.4 mg/kg): 0 ± 0 mm3
- Average Tumor Size (mm3) ± SEM on Day 46 ([2]; 0.4 mg/kg): 0 ± 0 mm3
- Average Tumor Size (mm3) ± SEM on Day 55 ([2]; 0.4 mg/kg): 0 ± 0 mm3
- Average Tumor Size (mm3) ± SEM on Day 60 ([2]; 0.4 mg/kg): 0 ± 0 mm3
- Average Tumor Size (mm3) ± SEM on Day 4 ([2]; 4 mg/kg): 18.0 ± 1.2 mm3
- Average Tumor Size (mm3) ± SEM on Day 12 ([2]; 4 mg/kg): 0 ± 0 mm3
- Average Tumor Size (mm3) ± SEM on Day 15 ([2]; 4 mg/kg): 0 ± 0 mm3
- Average Tumor Size (mm3) ± SEM on Day 19 ([2]; 4 mg/kg): 0 ± 0 mm3
- Average Tumor Size (mm3) ± SEM on Day 22 ([2]; 4 mg/kg): 0 ± 0 mm3
- Average Tumor Size (mm3) ± SEM on Day 26 ([2]; 4 mg/kg): 0 ± 0 mm3
- Average Tumor Size (mm3) ± SEM on Day 29 ([2]; 4 mg/kg): 0 ± 0 mm3
- Average Tumor Size (mm3) ± SEM on Day 34 ([2]; 4 mg/kg): 0 ± 0 mm3
- Average Tumor Size (mm3) ± SEM on Day 39 ([2]; 4 mg/kg): 0 ± 0 mm3
- Average Tumor Size (mm3) ± SEM on Day 42 ([2]; 4 mg/kg): 0 ± 0 mm3
- Average Tumor Size (mm3) ± SEM on Day 46 ([2]; 4 mg/kg): 0 ± 0 mm3
- Average Tumor Size (mm3) ± SEM on Day 55 ([2]; 4 mg/kg): 0 ± 0 mm3
- Average Tumor Size (mm3) ± SEM on Day 60 ([2]; 4 mg/kg): 0 ± 0 mm3
- S:N (highest RLU to lowest) [3]: 1
- S:N (highest RLU to lowest) [4]: 165
- S:N (highest RLU to lowest) [5]: 123
- S:N (highest RLU to lowest) [6]: 55

Reference: patent US11919965B2, “Methods of treating multiple myeloma with bispecific anti-BCMA x anti-CD3 antibodies” (Regeneron Pharmaceuticals, Inc., priority 2019, dated 2024)
